According to ChEMBL document CHEMBL1201862, “PubChem BioAssay data set” (2004):
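Each compound was tested at five concentrations against cells in 96-well plates for 48 hours. Abbreviation: GI50, concentration required for 50% inhibition of growth.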 Active and inactive are the calls of the source. Rule as the data show it: active = GI50 up to about 1.1 µM and inactive = higher.

Legend:
Assay in all cases: NCI-60 cell line screen, 48 h
HCT-15 = tested on: HCT-15
SF-539 = tested on: SF-539
XF498 = tested on: XF498
UO-31 = tested on: UO-31
HOP-92 = tested on: HOP-92
TK-10 = tested on: TK-10
SF-268 = tested on: SF-268
KM12 = tested on: KM12
SK-MEL-2 = tested on: SK-MEL-2
NCI-H522 = tested on: NCI-H522
HCC 2998 = tested on: HCC 2998
OVCAR-3 = tested on: OVCAR-3
HT-29 = tested on: HT-29
NCI-H23 = tested on: NCI-H23
RXF 393 = tested on: RXF 393
COLO 205 = tested on: COLO 205
IGROV-1 = tested on: IGROV-1
SR = tested on: SR
SNB-75 = tested on: SNB-75
CAKI-1 = tested on: CAKI-1
U-251 = tested on: U-251
A549 = tested on: A549
A498 = tested on: A498
SNB-78 = tested on: SNB-78
M14 = tested on: M14
HCT-116 = tested on: HCT-116
SNB-19 = tested on: SNB-19
OVCAR-8 = tested on: OVCAR-8
MOLT-4 = tested on: MOLT-4
LOX IMVI = tested on: LOX IMVI
HOP-62 = tested on: HOP-62
EKVX = tested on: EKVX
UACC-257 = tested on: UACC-257
SF-295 = tested on: SF-295
SW-620 = tested on: SW-620
K562 = tested on: K562
NCI-H460 = tested on: NCI-H460
SK-MEL-5 = tested on: SK-MEL-5
NCI-H226 = tested on: NCI-H226
HL-60 = tested on: HL-60
LXFL 529 = tested on: LXFL 529
786-0 = tested on: 786-0
RPMI-8226 = tested on: RPMI-8226
Malme-3M = tested on: Malme-3M
DMS-273 = tested on: DMS-273
SK-MEL-28 = tested on: SK-MEL-28
OVCAR-4 = tested on: OVCAR-4
M19-MEL = tested on: M19-MEL
OVCAR-5 = tested on: OVCAR-5
HOP-18 = tested on: HOP-18
DMS-114 = tested on: DMS-114
KM-20L2 = tested on: KM-20L2
SK-OV-3 = tested on: SK-OV-3
ACHN = tested on: ACHN
UACC-62 = tested on: UACC-62
CCRF-CEM = tested on: CCRF-CEM
SN12C = tested on: SN12C
DLD-1 = tested on: DLD-1

SMILES: C=C1C(=O)OC2/C=C(\C)C(OC(C)=O)C3OC3C(C)(O)CC(OC(=O)/C(C)=C/C)C12 (stereo not given)
- GI50 (HCT-15): 12.8 µM
- GI50 (SF-539): 3.67 µM (inactive)
- GI50 (XF498): 6.87 µM (inactive)
- GI50 (UO-31): 11 µM (inactive)
- GI50 (HOP-92): 5.52 µM (inactive)
- GI50 (TK-10): 11.9 µM (inactive)
- GI50 (SF-268): 10.9 µM (inactive)
- GI50 (KM12): 14.7 µM (inactive)
- GI50 (SK-MEL-2): 6.59 µM (inactive)
- GI50 (NCI-H522): 1.62 µM (inactive)
- GI50 (HCC 2998): 8.38 µM (inactive)
- GI50 (OVCAR-3): 3.9 µM (inactive)
- GI50 (HT-29): 14.9 µM (inactive)
- GI50 (NCI-H23): 12.8 µM (inactive)
- GI50 (RXF 393): 3.85 µM (inactive)
- GI50 (COLO 205): 3.86 µM (inactive)
- GI50 (IGROV-1): 16.9 µM (inactive)
- GI50 (SR): 2.96 µM (inactive)
- GI50 (SNB-75): 21.9 µM (inactive)
- GI50 (CAKI-1): 2.38 µM (inactive)
- GI50 (U-251): 12.1 µM (inactive)
- GI50 (A549): 18.7 µM (inactive)
- GI50 (A498): 15.8 µM (inactive)
- GI50 (SNB-78): 8.3 µM (inactive)
- GI50 (M14): 4.65 µM (inactive)
- GI50 (HCT-116): 2.16 µM (inactive)
- GI50 (SNB-19): 18.7 µM (inactive)
- GI50 (OVCAR-8): 9.93 µM (inactive)
- GI50 (MOLT-4): 5.05 µM (inactive)
- GI50 (LOX IMVI): 15.3 µM (inactive)
- GI50 (HOP-62): 19.1 µM (inactive)
- GI50 (EKVX): 18.3 µM (inactive)
- GI50 (UACC-257): 14.7 µM (inactive)
- GI50 (SF-295): 19.1 µM (inactive)
- GI50 (SW-620): < 0.01 µM (active)
- GI50 (K562): 4.35 µM (inactive)
- GI50 (NCI-H460): 15.7 µM (inactive)
- GI50 (SK-MEL-5): 13.7 µM (inactive)
- GI50 (NCI-H226): 10 µM (inactive)
- GI50 (HL-60): 2.51 µM (inactive)
- GI50 (LXFL 529): 2.44 µM (inactive)
- GI50 (786-0): 4.73 µM (inactive)
- GI50 (RPMI-8226): 4.91 µM (inactive)
- GI50 (Malme-3M): 8.69 µM (inactive)
- GI50 (DMS-273): 24.5 µM (inactive)
- GI50 (SK-MEL-28): 4.95 µM (inactive)
- GI50 (OVCAR-4): 33.8 µM (inactive)
- GI50 (M19-MEL): 8.49 µM (inactive)
- GI50 (OVCAR-5): 17.4 µM (inactive)
- GI50 (HOP-18): 11.3 µM (inactive)
- GI50 (DMS-114): 5.45 µM (inactive)
- GI50 (KM-20L2): 4.46 µM (inactive)
- GI50 (SK-OV-3): 20.1 µM (inactive)
- GI50 (ACHN): 13.5 µM (inactive)
- GI50 (UACC-62): 11 µM (inactive)
- GI50 (CCRF-CEM): 2.81 µM (inactive)
- GI50 (SN12C): 20 µM (inactive)

SMILES: C=CCn1c(=O)n(CC=C)c(=O)n(CC=C)c1=O
- GI50 (HCT-15): > 100 µM
- GI50 (SF-539): > 100 µM (inactive)
- GI50 (UO-31): > 100 µM (inactive)
- GI50 (HOP-92): > 100 µM (inactive)
- GI50 (TK-10): > 100 µM (inactive)
- GI50 (SF-268): > 100 µM (inactive)
- GI50 (KM12): > 100 µM (inactive)
- GI50 (SK-MEL-2): > 100 µM (inactive)
- GI50 (NCI-H522): > 100 µM (inactive)
- GI50 (HCC 2998): > 100 µM (inactive)
- GI50 (OVCAR-3): > 100 µM (inactive)
- GI50 (NCI-H23): > 100 µM (inactive)
- GI50 (RXF 393): > 100 µM (inactive)
- GI50 (COLO 205): > 100 µM (inactive)
- GI50 (IGROV-1): > 100 µM (inactive)
- GI50 (U-251): > 100 µM (inactive)
- GI50 (A549): > 100 µM (inactive)
- GI50 (A498): > 100 µM (inactive)
- GI50 (SNB-78): > 100 µM (inactive)
- GI50 (M14): > 100 µM (inactive)
- GI50 (HCT-116): > 100 µM (inactive)
- GI50 (SNB-19): > 100 µM (inactive)
- GI50 (OVCAR-8): > 100 µM (inactive)
- GI50 (MOLT-4): > 100 µM (inactive)
- GI50 (LOX IMVI): > 100 µM (inactive)
- GI50 (HOP-62): > 100 µM (inactive)
- GI50 (EKVX): > 100 µM (inactive)
- GI50 (UACC-257): > 100 µM (inactive)
- GI50 (SF-295): > 100 µM (inactive)
- GI50 (SW-620): > 100 µM (inactive)
- GI50 (K562): > 100 µM (inactive)
- GI50 (NCI-H460): > 100 µM (inactive)
- GI50 (SK-MEL-5): > 100 µM (inactive)
- GI50 (HL-60): > 100 µM (inactive)
- GI50 (LXFL 529): > 100 µM (inactive)
- GI50 (786-0): > 100 µM (inactive)
- GI50 (RPMI-8226): > 100 µM (inactive)
- GI50 (Malme-3M): > 100 µM (inactive)
- GI50 (DMS-273): > 100 µM (inactive)
- GI50 (SK-MEL-28): > 100 µM (inactive)
- GI50 (M19-MEL): > 100 µM (inactive)
- GI50 (DLD-1): > 100 µM (inactive)
- GI50 (OVCAR-5): > 100 µM (inactive)
- GI50 (HOP-18): > 100 µM (inactive)
- GI50 (DMS-114): > 100 µM (inactive)
- GI50 (KM-20L2): > 100 µM (inactive)
- GI50 (SK-OV-3): > 100 µM (inactive)
- GI50 (ACHN): > 100 µM (inactive)
- GI50 (UACC-62): > 100 µM (inactive)
- GI50 (CCRF-CEM): > 100 µM (inactive)
- GI50 (SN12C): > 100 µM (inactive)

SMILES: OCCNCCOc1ccc(/C(=C(/Cl)c2ccccc2)c2ccccc2)cc1
- GI50 (HCT-15): 5.58 µM
- GI50 (SF-539): 13.6 µM (inactive)
- GI50 (XF498): 2.9 µM (inactive)
- GI50 (UO-31): 9.48 µM (inactive)
- GI50 (TK-10): 0.408 µM (active)
- GI50 (KM12): 0.544 µM (active)
- GI50 (SK-MEL-2): 13.2 µM (inactive)
- GI50 (NCI-H522): 14 µM (inactive)
- GI50 (OVCAR-3): 12.1 µM (inactive)
- GI50 (HT-29): 1.11 µM (active)
- GI50 (NCI-H23): 14.7 µM (inactive)
- GI50 (RXF 393): 0.637 µM (active)
- GI50 (COLO 205): 3.56 µM (inactive)
- GI50 (IGROV-1): 10.5 µM (inactive)
- GI50 (SR): 3.34 µM (inactive)
- GI50 (SNB-75): 2.37 µM (inactive)
- GI50 (CAKI-1): 12.4 µM (inactive)
- GI50 (U-251): 8.43 µM (inactive)
- GI50 (A549): 0.34 µM (active)
- GI50 (SNB-78): 8.51 µM (inactive)
- GI50 (M14): 1.87 µM (inactive)
- GI50 (HCT-116): 4.99 µM (inactive)
- GI50 (SNB-19): 13.9 µM (inactive)
- GI50 (OVCAR-8): 13.5 µM (inactive)
- GI50 (MOLT-4): 1.69 µM (inactive)
- GI50 (LOX IMVI): 3.49 µM (inactive)
- GI50 (HOP-62): 16.7 µM (inactive)
- GI50 (EKVX): 14.7 µM (inactive)
- GI50 (UACC-257): 2.21 µM (inactive)
- GI50 (SF-295): 15.2 µM (inactive)
- GI50 (SW-620): 4.44 µM (inactive)
- GI50 (K562): 2.85 µM (inactive)
- GI50 (NCI-H460): 3.4 µM (inactive)
- GI50 (SK-MEL-5): 6.25 µM (inactive)
- GI50 (NCI-H226): 21.6 µM (inactive)
- GI50 (HL-60): 0.729 µM (active)
- GI50 (LXFL 529): 6.92 µM (inactive)
- GI50 (786-0): 9.68 µM (inactive)
- GI50 (RPMI-8226): 4.42 µM (inactive)
- GI50 (Malme-3M): 0.246 µM (active)
- GI50 (SK-MEL-28): 1.14 µM (inactive)
- GI50 (OVCAR-4): 16.5 µM (inactive)
- GI50 (M19-MEL): 10.9 µM (inactive)
- GI50 (DLD-1): 12.1 µM (inactive)
- GI50 (OVCAR-5): 15.1 µM (inactive)
- GI50 (HOP-18): 19.3 µM (inactive)
- GI50 (DMS-114): 15.2 µM (inactive)
- GI50 (KM-20L2): 2.47 µM (inactive)
- GI50 (SK-OV-3): 3 µM (inactive)
- GI50 (UACC-62): 12.5 µM (inactive)
- GI50 (CCRF-CEM): 1.92 µM (inactive)
- GI50 (SN12C): 5.3 µM (inactive)
